Measurements reported in paper PMC6225185 (2018).

Legend:
[1] = tested on: [d-(TTGGGGT)]4 immobilized (SPR) (DNA, G4) TTGGGGT; assay: SPR steady state; details: 100 mM KCl; 10 mM HEPES, 3 mM EDTA, 0.005% P20, pH 7.4, 25 °C; dominant mode
[2] = tested on: [d-(TTGGGGT)]4 (DNA, G4) TTGGGGT; assay: 1H NMR titration (T7H6 and T7CH3 shifts); details: 100 mM KCl, 10 mM K2HPO4; 1 mM EDTA, pH 7.0, 25 °C, 90% H2O/10% D2O; site 1 of 2 (G6-T7); apparent
[3] = tested on: [d-(TTGGGGT)]4 (DNA, G4) TTGGGGT; assay: DSC; details: 100 mM KCl, 10 mM K2HPO4; 1 mM EDTA, pH 7.0; 50 µM quadruplex, D/N = 4.0 (200 µM daunomycin); third transition

For `COc1cccc2c1C(=O)c1c(O)c3c(c(O)c1C2=O)C[C@@](O)(C(C)=O)C[C@@H]3O[C@H]1C[C@H](N)[C@H](O)[C@H](C)O1`, the Kb [1] was ~ 4.1 × 10^3 M^−1, the Kb [2] was ~ 1.8–2.3 × 10^4 M^−1 and the ΔTm3 [3] was 14.4 ± 1.1 °C.
